According to publication PMC3091812 (Neuropeptides, 2011):

Columns and labels:
HEK-293 cells [1] = experiment: Caspase-3 activity assay, protection from 3-nitropropionate; type: cell-based, Human; details: 8 mM 3-NP, 12 hours, over control
HEK-293 cells [2] = experiment: Caspase-3 activity assay, protection from staurosporine; type: cell-based, Human; details: 1 μM staurosporine, 12 hours, vs citrate buffer control

SMILES	increase of caspase-3 activity by toxin (HEK-293 cells [1])	increase of caspase-3 activity by toxin (HEK-293 cells [2])
O=C(O)CC[N+](=O)[O-] [3-NP, 3-nitropropionate]	approximately 100%	–
CN[C@@H]1C[C@H]2O[C@@](C)([C@@H]1OC)n1c3ccccc3c3c4c(c5c6ccccc6n2c5c31)C(=O)NC4 [staurosporine]	–	approximately 80%
